Test results from patent US9902733B2, “Furopyridines as inhibitors of protein kinases” (MASARYKOVA UNIVERZITA, priority 2014, dated 2018).
Like-named read-outs stand apart in the source and are kept apart here.

Assays:
Type in all cases: biochemical
[1] = target: T1, CLK2 (h) (Homo sapiens, UniProt P49760); test: CLK2 KinaseProfiler radiometric protein kinase assay
T1 construct: purchased Merck Millipore (KinaseProfiler service)
Protocol: (§1) In vitro essays were performed by the company Merck Millipore in their KinaseProfiler radiometric protein kinase assay as paid commercial service. The compounds IC50 values for inhibition of individual protein kinases were determined. Dose-response curves were plotted from inhibition data generated, each in duplicate, from 10 point serial dilutions of inhibitory compounds. Concentration of compound was plotted against % kinase activity. To generate IC50 values, the dose-response curves were fitted to a standard sigmoidal curve and IC50 values were derived by standard nonlinear regression analysis.
(§2) All tested compounds were prepared in 100% DMSO to final assay concentrations either 0.5 mM (for the concentration row A, see below) or 0.05 mM (for the concentration row B). This working stock of the compound was added to the assay well as the first component in the reaction, followed by the remaining components as detailed below. The stock solution was added to the individual assay wells in such amounts that the concentrations of the compound were either in the row A (0.001 μM, 0.003 μM, 0.01 μM, 0.03 μM, 0.1 μM, 0.3 μM, 1.0 μM, 3.0 μM, and 10.0 μM) or in the row B (0.0001 μM, 0.0003 μM, 0.001 μM, 0.003 μM, 0.01 μM, 0.03 μM, 0.1 μM, 0.3 μM, and 1.0 μM). There was no pre-incubation step between the compound and the kinase prior to initiation of the reaction.
(§3) The positive control wells contained all components of the reaction, except the compound of interest; however, DMSO (at a final concentration of 2%) was included in these wells to control for solvent effects. The blank wells contained all components of the reaction, with staurosporine as a reference inhibitor replacing the compound of interest. This abolished kinase activity and established the base-line (0% kinase activity remaining).
CLK2 (h) was diluted in the buffer (20 mM MOPS (3-(N-morpholino)propanesulfonic acid), 1 mM EDTA (ethylendiaminotetraacetic acid), 0.01% Brij-35 (detergent), 5% Glycerol, 0.1% β-mercaptoethanol, 1 mg/mL BSAs) to the concentration of 1.01 mg/mL prior to addition to the reaction mix.
(§4) The above stock solution of CLK2(h) was added to a mixture containing 8 mM MOPS pH 7.0, 0.2 mM EDTA, and 20 μM […](p) EDEEE in such amount that the resulting concentration of CLK2(h) was 2.1 nM. This mixture was added to the stock solution of the tested compound. The reaction was initiated by the addition of the MgATP mix in such amount that the resulting concentration of Mg acetate in the reaction mixture was 10 mM and [γ-^33P-ATP] (specific activity approx. 500 cpm/pmol) was 15 μM. After incubation for 40 minutes at room temperature, the reaction was stopped by the addition of 3% phosphoric acid solution. 10 μL of the reaction was then spotted onto a P30 filtermat and washed three times for 5 minutes in 75 mM phosphoric acid and once in methanol prior to drying and scintillation counting.

[2] = target: T2, DYRK2 (Homo sapiens, UniProt Q92630); test: DYRK2 KinaseProfiler radiometric protein kinase assay
T2 construct: purchased Merck Millipore (KinaseProfiler service)
T2 sequence (Q92630 1-601): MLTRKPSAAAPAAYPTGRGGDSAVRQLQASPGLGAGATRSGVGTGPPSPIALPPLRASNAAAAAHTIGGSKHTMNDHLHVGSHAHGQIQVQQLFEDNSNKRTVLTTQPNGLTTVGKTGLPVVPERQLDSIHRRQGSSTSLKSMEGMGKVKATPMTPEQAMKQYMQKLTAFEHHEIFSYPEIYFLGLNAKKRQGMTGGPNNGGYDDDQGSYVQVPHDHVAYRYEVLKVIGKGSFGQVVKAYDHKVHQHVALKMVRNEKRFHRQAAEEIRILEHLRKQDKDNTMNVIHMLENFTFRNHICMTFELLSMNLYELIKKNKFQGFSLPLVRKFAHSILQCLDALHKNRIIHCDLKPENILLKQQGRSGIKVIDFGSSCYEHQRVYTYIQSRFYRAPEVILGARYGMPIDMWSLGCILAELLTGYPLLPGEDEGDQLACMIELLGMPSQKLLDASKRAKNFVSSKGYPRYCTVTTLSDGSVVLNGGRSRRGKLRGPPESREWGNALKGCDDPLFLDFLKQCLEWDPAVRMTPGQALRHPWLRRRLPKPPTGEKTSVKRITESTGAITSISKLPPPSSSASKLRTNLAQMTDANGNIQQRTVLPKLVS
Protocol: as §1, §2, §3

[3] = target: T3, CLK4 (h) (Homo sapiens, UniProt Q9HAZ1); test: CLK4 KinaseProfiler radiometric protein kinase assay; details: 15 μM ATP, 40 minutes at room temperature
T3 construct: purchased Merck Millipore (KinaseProfiler service)
Protocol: as §1, §2, §3
CLK4 (h) was diluted in the buffer (20 mM MOPS, 1 mM EDTA, 0.01% Brij-35, 5% Glycerol, 0.1% β-mercaptoethanol, 1 mg/mL BSAs) to the concentration of 1.01 mg/mL prior to addition to the reaction mix.
as §4, with “CLK4(h)” for “CLK2(h)”, “200” for “20”, “140.8” for “2.1”

[4] = target: T4, HIPK1(h) (Homo sapiens, UniProt Q86Z02); test: HIPK1 KinaseProfiler radiometric protein kinase assay; details: 45 μM ATP, 40 minutes at room temperature
T4 construct: purchased Merck Millipore (KinaseProfiler service)
Protocol: as §1, §2, §3
HIPK1(h) was diluted in the buffer (20 mM MOPS, 1 mM EDTA, 0.01% Brij-35, 5% Glycerol, 0.1% β-mercaptoethanol, 1 mg/mL BSAs) to the concentration of 1.01 mg/mL prior to addition to the reaction mix.
(§5) The above stock solution of HIPK1(h) was added to a mixture containing 8 mM MOPS pH 7.0, 0.2 mM EDTA, and 0.33 mg/mL myelin basic protein in such amount that the resulting concentration of HIPK1(h) was 4.7 nM. This mixture was added to the stock solution of the tested compound. The reaction was initiated by the addition of the MgATP mix in such amount that the resulting concentration of Mg acetate in the reaction mixture was 10 mM and [γ-^33P-ATP] (specific activity approx. 500 cpm/pmol) was 45 μM. After incubation for 40 minutes at room temperature, the reaction was stopped by the addition of 3% phosphoric acid solution. 10 μL of the reaction was then spotted onto a P30 filtermat and washed three times for 5 minutes in 75 mM phosphoric acid and once in methanol prior to drying and scintillation counting.

[5] = target: T5, HIPK2(h) (Homo sapiens, UniProt Q9H2X6); test: HIPK2 KinaseProfiler radiometric protein kinase assay; details: 10 μM ATP, 40 minutes at room temperature
T5 construct: purchased Merck Millipore (KinaseProfiler service)
Protocol: as §1, §2, §3
HIPK2(h) was diluted in the buffer (20 mM MOPS, 1 mM EDTA, 0.01% Brij-35, 5% Glycerol, 0.1% β-mercaptoethanol, 1 mg/mL BSAs) to the concentration of 1.01 mg/mL prior to addition to the reaction mix.
as §5, with “HIPK2(h)” for “HIPK1(h)”, “1.4” for “4.7”, “10” for “45”

[6] = radiometric, 15 μM ATP, 40 minutes at room temperature, read-out: CLK2 IC50

T1 sequence (P49760 whole entry): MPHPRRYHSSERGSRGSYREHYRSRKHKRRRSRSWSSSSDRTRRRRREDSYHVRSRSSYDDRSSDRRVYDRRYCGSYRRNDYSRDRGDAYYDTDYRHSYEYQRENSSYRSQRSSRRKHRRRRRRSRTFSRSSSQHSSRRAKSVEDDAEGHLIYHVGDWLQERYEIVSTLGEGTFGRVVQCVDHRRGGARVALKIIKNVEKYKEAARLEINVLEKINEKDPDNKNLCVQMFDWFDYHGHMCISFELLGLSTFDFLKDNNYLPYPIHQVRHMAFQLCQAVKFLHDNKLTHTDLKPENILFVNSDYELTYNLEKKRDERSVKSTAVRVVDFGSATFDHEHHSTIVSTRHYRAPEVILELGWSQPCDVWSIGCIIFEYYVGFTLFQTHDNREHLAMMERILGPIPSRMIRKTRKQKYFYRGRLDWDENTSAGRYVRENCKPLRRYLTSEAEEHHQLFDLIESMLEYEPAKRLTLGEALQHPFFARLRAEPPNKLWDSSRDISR
T3 sequence (Q9HAZ1 whole entry): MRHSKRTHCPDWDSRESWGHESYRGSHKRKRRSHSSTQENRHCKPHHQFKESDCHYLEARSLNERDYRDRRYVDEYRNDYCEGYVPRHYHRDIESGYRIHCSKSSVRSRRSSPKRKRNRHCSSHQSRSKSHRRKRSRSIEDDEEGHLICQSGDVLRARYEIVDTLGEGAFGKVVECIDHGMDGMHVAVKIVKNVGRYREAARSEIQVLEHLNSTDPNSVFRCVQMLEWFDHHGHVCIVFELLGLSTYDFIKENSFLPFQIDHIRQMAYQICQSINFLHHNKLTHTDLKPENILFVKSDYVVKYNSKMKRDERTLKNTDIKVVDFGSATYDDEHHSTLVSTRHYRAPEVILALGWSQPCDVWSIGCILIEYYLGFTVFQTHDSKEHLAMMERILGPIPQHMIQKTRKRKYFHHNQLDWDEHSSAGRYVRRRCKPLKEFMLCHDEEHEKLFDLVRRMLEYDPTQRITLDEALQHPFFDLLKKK
T5 sequence (Q9H2X6 whole entry): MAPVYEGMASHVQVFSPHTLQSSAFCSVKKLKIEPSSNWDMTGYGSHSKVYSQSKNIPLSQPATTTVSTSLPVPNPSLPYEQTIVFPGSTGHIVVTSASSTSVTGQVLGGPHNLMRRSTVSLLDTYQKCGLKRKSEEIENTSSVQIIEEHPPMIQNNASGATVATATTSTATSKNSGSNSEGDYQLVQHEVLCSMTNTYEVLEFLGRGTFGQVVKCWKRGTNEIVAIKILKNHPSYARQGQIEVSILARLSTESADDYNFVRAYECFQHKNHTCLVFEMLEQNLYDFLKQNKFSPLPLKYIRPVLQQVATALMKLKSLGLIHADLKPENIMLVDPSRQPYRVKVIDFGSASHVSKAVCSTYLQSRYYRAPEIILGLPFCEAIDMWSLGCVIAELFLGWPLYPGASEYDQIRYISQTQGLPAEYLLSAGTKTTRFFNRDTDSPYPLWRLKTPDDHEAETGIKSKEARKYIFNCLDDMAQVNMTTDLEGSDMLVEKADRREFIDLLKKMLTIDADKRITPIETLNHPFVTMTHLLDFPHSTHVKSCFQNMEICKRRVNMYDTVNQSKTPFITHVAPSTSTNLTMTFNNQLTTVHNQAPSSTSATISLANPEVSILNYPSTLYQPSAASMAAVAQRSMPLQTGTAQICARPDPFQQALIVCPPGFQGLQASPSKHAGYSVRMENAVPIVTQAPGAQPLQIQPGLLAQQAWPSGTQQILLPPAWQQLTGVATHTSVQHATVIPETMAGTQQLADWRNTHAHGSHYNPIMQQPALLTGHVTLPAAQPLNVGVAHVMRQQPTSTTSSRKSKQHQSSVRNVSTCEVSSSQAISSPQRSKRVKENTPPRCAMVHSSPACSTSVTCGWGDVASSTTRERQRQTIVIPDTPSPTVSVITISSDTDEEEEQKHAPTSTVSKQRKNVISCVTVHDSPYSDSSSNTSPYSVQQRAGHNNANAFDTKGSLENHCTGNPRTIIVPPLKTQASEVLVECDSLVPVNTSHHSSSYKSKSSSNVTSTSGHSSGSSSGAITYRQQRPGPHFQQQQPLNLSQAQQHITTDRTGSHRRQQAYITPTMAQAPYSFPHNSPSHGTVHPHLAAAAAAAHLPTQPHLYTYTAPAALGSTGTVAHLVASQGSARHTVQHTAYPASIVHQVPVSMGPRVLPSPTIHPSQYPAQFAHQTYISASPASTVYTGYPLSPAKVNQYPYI
T4 sequence (Q86Z02 whole entry): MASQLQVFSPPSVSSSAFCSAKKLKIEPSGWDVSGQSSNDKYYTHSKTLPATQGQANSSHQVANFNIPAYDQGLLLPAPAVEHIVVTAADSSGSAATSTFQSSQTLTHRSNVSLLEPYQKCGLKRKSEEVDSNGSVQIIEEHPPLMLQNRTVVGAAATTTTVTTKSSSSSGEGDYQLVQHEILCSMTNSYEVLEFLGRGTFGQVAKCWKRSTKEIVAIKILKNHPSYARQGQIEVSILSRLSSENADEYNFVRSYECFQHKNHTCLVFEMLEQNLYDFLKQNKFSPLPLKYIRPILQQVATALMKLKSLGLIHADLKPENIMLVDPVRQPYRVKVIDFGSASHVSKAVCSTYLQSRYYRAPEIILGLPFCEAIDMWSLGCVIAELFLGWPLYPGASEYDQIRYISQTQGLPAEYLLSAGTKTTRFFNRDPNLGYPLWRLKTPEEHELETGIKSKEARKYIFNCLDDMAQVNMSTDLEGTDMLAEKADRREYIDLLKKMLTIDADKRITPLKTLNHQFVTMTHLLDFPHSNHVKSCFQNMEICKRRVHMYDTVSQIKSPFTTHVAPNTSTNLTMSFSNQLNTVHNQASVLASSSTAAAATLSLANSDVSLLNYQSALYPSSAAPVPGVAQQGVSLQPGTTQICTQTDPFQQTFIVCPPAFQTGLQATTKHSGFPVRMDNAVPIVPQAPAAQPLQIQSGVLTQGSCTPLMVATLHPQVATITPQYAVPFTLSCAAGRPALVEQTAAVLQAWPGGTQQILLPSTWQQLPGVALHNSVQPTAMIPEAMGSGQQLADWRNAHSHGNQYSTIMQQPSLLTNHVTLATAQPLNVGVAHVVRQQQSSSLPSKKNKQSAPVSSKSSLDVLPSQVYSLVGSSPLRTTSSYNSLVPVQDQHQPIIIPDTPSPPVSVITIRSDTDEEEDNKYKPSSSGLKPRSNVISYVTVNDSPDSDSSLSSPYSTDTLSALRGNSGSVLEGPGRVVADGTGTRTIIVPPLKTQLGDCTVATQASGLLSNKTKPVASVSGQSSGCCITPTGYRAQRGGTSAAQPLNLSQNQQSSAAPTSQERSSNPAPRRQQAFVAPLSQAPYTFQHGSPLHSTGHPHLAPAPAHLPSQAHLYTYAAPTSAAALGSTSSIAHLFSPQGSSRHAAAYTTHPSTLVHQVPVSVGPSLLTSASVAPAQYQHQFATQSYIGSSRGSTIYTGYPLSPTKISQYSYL

Row | Structure (SMILES) | IC50 [1, 6] [nM] | IC50 [2] [nM] | IC50 [3] [nM] | IC50 [4] [nM] | IC50 [5] [nM] | IC50 [1] [nM]
1 | Cn1cc(-c2ccc3occ(-c4ccc([S+](C)[O-])cc4)c3n2)cn1 (stereo not drawn) [Preparative Example 73] | < 5000 | < 5000 | – | – | – | –
2 | c1ccc2cc(-c3coc4ccc(-c5cncs5)nc34)ccc2c1 [Preparative Example 7F] | < 1000 | – | < 1000 | < 1000 | < 100 | –
3 | c1ccc(-c2coc3ccc(-c4cccnc4)nc23)cc1 [Preparative Example 6D] | < 5000 | – | < 1000 | < 5000 | < 5000 | –
4 | Cn1cc(-c2ccc3occc3n2)cn1 [Preparative Example 12B] | < 5000 | – | < 1000 | – | – | –
5 | Cn1cc(-c2ccc3occ(-c4cccc(-c5ccccc5)c4)c3n2)cn1 [Preparative Example 61] | < 100 | < 5000 | < 100 | < 1000 | < 100 | –
6 | Cn1cc(-c2ccc3occ(-c4cccc(C(C)(C)C)c4)c3n2)cn1 [Preparative Example 74] | < 1000 | – | – | < 5000 | – | –
7 | CC(C)(C)c1ccc(-c2coc3ccc(-c4cn[nH]c4)nc23)cc1 [Preparative Example 54] | – | – | < 5000 | < 1000 | < 1000 | < 5000
8 | CCc1coc2ccc(-c3cnn(C)c3)nc12 [Preparative Example 23] | < 1000 | < 5000 | < 1000 | – | – | –
9 | Cn1cc(-c2ccc3occ(-c4ccc5cn[nH]c5c4)c3n2)cn1 [Preparative Example 65] | < 100 | < 1000 | – | < 1000 | – | –
10 | Cn1cc(-c2ccc3occ(-c4ccc(-c5nnn[nH]5)cc4)c3n2)cn1 [Preparative Example 81] | < 5000 | < 5000 | – | < 5000 | – | –
11 | Cn1cc(-c2ccc3occ(-c4ccc(S(C)(=O)=O)cc4)c3n2)cn1 [Preparative Example 71] | < 1000 | < 5000 | – | < 5000 | – | –
12 | c1ccc2cc(-c3coc4ccc(-c5cnoc5)nc34)ccc2c1 [Preparative Example 62] | < 5000 | – | < 5000 | < 1000 | < 1000 | –

The remaining lines, values ahead:

Row | IC50 [1, 6] [nM] | IC50 [2] [nM] | IC50 [3] [nM] | IC50 [4] [nM] | IC50 [5] [nM] | IC50 [1] [nM] | Structure (SMILES)
13 | < 5000 | – | < 5000 | – | < 5000 | – | CC(C)n1cc(-c2ccc3occ(-c4ccc5ccccc5c4)c3n2)cn1 [Preparative Example 7C]
14 | < 1000 | < 5000 | – | < 1000 | – | – | Cn1cc(-c2ccc3occ(-c4ccc(CO)cc4)c3n2)cn1 [Preparative Example 70]
15 | < 1000 | – | < 1000 | – | – | – | CC(C)(C)c1coc2ccc(-c3cn[nH]c3)nc12 [Preparative Example 55]
16 | < 1000 | – | – | – | – | – | Cc1cc2occ(-c3ccc4ccccc4c3)c2nc1-c1cnn(C)c1 [Preparative Example 80]
17 | < 1000 | < 5000 | – | < 1000 | – | – | Cn1cc(-c2ccc3occ(-c4ccc(C(N)=O)cc4)c3n2)cn1 [Preparative Example 66]
